Measured values as given in patent US20230065640A1, “COMBINATION THERAPIES AND BIOMARKERS FOR TREATING B-CELL LYMPHOMAS” (priority 2020, published 2023).

Key:
[1] = test system: SU-DHL-10, OCI-LY-7 and SU-DHL-2 cells; assay: Cell proliferation XTT assay in DLBCL cells with or without MYCC rearrangement; assay type: cell-based, Human; conditions: DLBCL with a MYCC rearrangement versus without, 72 h incubation, FIG. 4
Procedure: (§1) Cell Culture. Human diffuse large B-cell lymphoma cells, SU-DHL-10, SU-DHL-4, OCI-LY-7 and SU-DHL-2 cells (purchased from Cell Bank, Shanghai Institutes for Biological Sciences, Chinese Academy of Sciences) were cultured in RPMI 1640 (Hyclone™, SH30809.01B) supplemented with 10% fetal bovine serum (GEMINI, 900-108). Cultures were incubated at 37° C., in 5% CO2.
Cell Treatment and proliferation assay. SU-DHL-10, OCI-LY-7 and SU-DHL-2 cell were seeded in 96-well plates (Corning-Costar, 3599) at 40000 cells/well in 200 μl culture medium treated with YM155 (50, 25, 12.5, 2.5, 1, 0.5 nM; Apex BIO, A4221) or DMSO (0.1%; Amresco, 67-68-5). After 72 h incubation, cell proliferation was measured by XTT assay (Cell Proliferation Kit II XTT, sigma, 11465015001) according to manufacturer's protocols. Briefly, after YM155 treatment, added to each well 50 μl of the XTT labeling mixture, then incubated the micro-plate for 4 h in a humidified atmosphere. The absorbance of wavelength was determined at 490 nm (OD490) and 650 nm (OD650) respectively by SpectraMax 190. The IC50 was calculated by the value of OD490. OD650.

[2] = test system: DLBCL cells with a MYCC rearrangement; assay: Apoptosis assay (Annexin V/PI staining); assay type: cell-based, Human; conditions: 24 hours post-treatment, FIG. 5A
Procedure: as §1
Apoptosis Assay. Apoptosis was detected by Annexin V/PI staining kit (Thermo Fisher) according to the manufacturer's instructions. Briefly, cells were plated at a density of 5×10^5 cells/mL in RPMI 1640 media with 2% FBS with desired concentrations of YM155. At 24 hours post-treatment the cells were harvested and tested for apoptosis by Annexin V and PI staining. Cell analysis was performed using a FACSAria (BD).

c-MYC = assay: Western blot of c-MYC in DLBCL cells; assay type: cell-based, Human; conditions: DLBCL cells with a MYCC rearrangement; treated 24 hours; FIG. 5B
Procedure: as §1
Western blot. SU-DHL-10, OCI-LY-7 and SU-DHL-2 cells were treated with/without YM155 for 24 hours. Cell lysates were prepared in lysis buffer (Thermo Fisher). Protein concentrations were determined using a Bio-Rad protein assay (Bio-Rad). 20 μg protein was loaded in 4%-12% SDS-PAGE (Invitrogen), and transferred to nitrocellulose. Membranes were blocked in 5% BSA (Sigma) for 1 hour, incubated with the primary antibody overnight at 4° C., washed and incubated with the appropriate horseradish-conjugated secondary antibody (1:5000, Cell Signaling Technology) for 1 hour at room temperature. An enhanced chemiluminescent kit (Beyotime Biotechnology) was used to visualize the signal. The following antibodies were used: c-MYC (Abcam) and GAPDH (Beyotime Biotechnology).

[3] = test system: DLBCL with a MYCC rearrangement; assay: CDX mouse model of DLBCL with a MYCC rearrangement; assay type: in vivo, BALB/C-nu mice
Procedure: (§2) Tumor Xenograft models (CDX models). BALB/C-nu mice (6-8 weeks, SPF Biotechnology Co., Ltd) were inoculated by s.c. injection of tumor cell (SU-DHL-10, SU-DHL-4 or OCI-LY-7) suspension containing Matrigel (Corning)/PBS at a ratio of 1:1. 1×10^7 cells were inoculated. When tumors reached 150-200 mm^3, treatment was initiated. Tumor growth was monitored twice a week. Tumor volume was calculated by applying the following equation: tumor volume=½(length×width^2).

[4] = test system: DLBCL with a MYCC rearrangement and BCL2 expression (MYCC/BCL2 associated lymphoma); assay: CDX mouse model of DLBCL with a MYCC rearrangement and BCL2 expression; assay type: in vivo, BALB/C-nu mice; conditions: FIG. 8; alone and in combination with BCL2 inhibitor (ABT199)
Procedure: as §2

[5] = test system: SU-DHL-4 (double hit (MYCC/BCL2), CD20 positive); assay: SU-DHL-4 CDX model; assay type: in vivo, BALB/C-nu mice; conditions: FIG. 10; b/c-nu; PC-002 5 mg/kg i.p., alone and in combination with CHOP or RCHOP
Procedure: CHOP: cyclophosphamide, 40 mg/kg, QW*3, D1, i.v., doxorubicin, 3.3 mg/kg, QW*3, D1, i.v., vincristine, 0.5 mg/kg, QW*3, D1, i.v., prednisone, 0.2 mg/kg, QD*5*3W,D1-5, p.o. RCHOP: rituximab, 25 mg/kg, QW*3, i.p., cyclophosphamide, 40 mg/kg, QW*3, D1, i.v., doxorubicin, 3.3 mg/kg, QW*3, D1, i.v., vincristine, 0.5 mg/kg, QW*3, D1, i.v., prednisone, 0.2 mg/kg, QD*5*3W,D1-5, p.o. PC-002: 5 mg/kg, QD*5*3w, D1-5, i.p.

survivin = conditions: Minematsu et al. 2008; cited from earlier work
[6] = test system: prostate, pancreatic, and lung cancer; conditions: cited from earlier work
[7] = FIG. 6, alone and in combination with PARP inhibitor (olaparib)

Molecule	sensitivity of DLBCL to YM155 (cell proliferation) [1]	apoptosis of DLBCL cells [2]	MYCC expression (c-MYC)	effect on tumor growth [3, 7]	effect on tumor growth ([3]; FIG. 7, alone and in combination with CHOP)	effect on tumor volume ([3]; FIG. 9, b/c-nu, PC-002 5 mg/kg i.p., alone and in combination with CHOP)	effect on tumor growth [4]	effect on tumor volume [5]	survivin expression (survivin)	antitumor activity ([6]; Minematsu et al. 2008)	anti-tumor effects in various in vivo cancer models ([6]; prostate, pancreatic, and lung cancer, Nakahara et al. 2007, Na et al. 2012)
1-(2-Methoxyethyl)-2-methyl-4,9-dioxo-3-(pyrazin-2-ylmethyl)-4,9-dihydro-1H-naphtho[2,3-d] imidazolium bromide [YM155]	more sensitive	induces apoptosis	lowers the MYCC expression	tumor regression	tumor regression	significant effect on reducing tumor volume	complete tumor regression	profound effect on reducing tumor volume, essentially eliminating tumor growth	down-regulation of survivin	potent antitumor activity	exerts anti-tumor effects
CC1(C)CCC(CN2CCN(c3ccc(C(=O)NS(=O)(=O)c4ccc(NCC5CCOCC5)c([N+](=O)[O-])c4)c(Oc4cnc5[nH]ccc5c4)c3)CC2)=C(c2ccc(Cl)cc2)C1 [ABT199]	–	–	–	–	–	–	no significant effect on tumor growth	–	–	–	–
O=C(c1cc(Cc2n[nH]c(=O)c3ccccc23)ccc1F)N1CCN(C(=O)C2CC2)CC1 [olaparib]	–	–	–	no significant effect on tumor growth	–	–	–	–	–	–	–
